Measurements from patent publication US10577368B2 (The United States of America, as represented by the …, priority 2013, dated 2020).
Several values for one entry are separate records, joined by “and”; a condition that tells them apart may be missing. Equal values may be shown once. Read-outs that look alike come from different tables or passages of the source. Each block holds one molecule with its values, some of them ahead of it.

Legend:
h5HT2B = h5HT2B (Homo sapiens (Human), UniProt P41595); assay: Off-target binding, 5HT2B
DOR opiate receptor = DOR opiate receptor (Homo sapiens (Human), UniProt P41143); assay: Off-target binding, DOR
h5HT1A = h5HT1A (Homo sapiens (Human), UniProt P08908); assay: Off-target binding, 5HT1A
[1] = target: Alpha 2C adrenergic receptor (Homo sapiens (Human), UniProt P18825); assay: Off-target binding, α2C
Source text: (§1) The results are set forth below.

r Sigma 2 = r Sigma 2 (Rattus norvegicus (Rat), UniProt Q5U3Y7); assay: Off-target binding, Sigma-2; conditions: for Ki: off-target binding
Source text: as §1

[2] = target: h Beta 3 adrenergic receptor (Homo sapiens (Human), UniProt P13945); assay: Off-target binding, β3
PBR = PBR (Homo sapiens (Human), UniProt P30536); assay: Off-target binding, PBR; conditions: for Ki: off-target binding
Source text: as §1

[3] = target: Alpha 2B adrenergic receptor (Homo sapiens (Human), UniProt P18089); assay: Off-target binding, α2B
Source text: as §1

h5HT2C = h5HT2C (Homo sapiens, UniProt P28335); assay: Off-target binding, 5HT2C
hM2 muscarinic receptor = hM2 muscarinic receptor (Homo sapiens (Human), UniProt P08172); assay: Off-target binding, M2
hH4 histamine receptor = hH4 histamine receptor (Homo sapiens (Human), UniProt Q9H3N8); assay: Off-target binding, H4
Source text: as §1

hA3AR = hA3AR (Homo sapiens (Human), UniProt P0DMS8); assay: Radioligand binding at hA3AR, CHO cell membranes, [125I]I-AB-MECA
hA1AR = hA1AR (Homo sapiens (Human), UniProt P30542); assay: Radioligand binding at hA1AR, CHO cell membranes, [3H]R-PIA; conditions: read-out: hA1AR % inhibition
hA2AAR = hA2AAR (Homo sapiens (Human), UniProt P29274); assay: Radioligand binding at hA2AAR, HEK293 cell membranes, [3H]CGS21680; conditions: read-out: hA2AAR % inhibition
mA3AR = mA3AR (Mus musculus (Mouse), UniProt Q61618); assay: Competition binding at mA3AR, HEK293 cell membranes
mA1AR = mA1AR (Mus musculus (Mouse), UniProt Q60612); assay: Competition binding at mA1AR, HEK293 cell membranes; conditions: read-out: A1AR % inhibition, mouse data (m)
[4] = tested on: muscarinic, adrenergic, dopamine, GABA, histamine, opiate, serotonin receptors and transporters; assay: Off-target binding panel (receptors and transporters of Table 5); conditions: for Interactions at other receptors of the off-target panel: 10 μM
Source text: as §1

mA2AAR = mA2AAR (Mus musculus (Mouse), UniProt Q60613); assay: Competition binding at mA2AAR, HEK293 cell membranes; conditions: read-out: A2AAR % inhibition, mouse data (m) (converted)
[5] = tested on: chronic constriction injury model of neuropathic pain; assay: CCI model of neuropathic pain, reversal of mechano-allodynia; assay type: in vivo, mice; conditions: for Max. effect Emax (% ± SEM) / Time of peak protection: ipsilateral hind paw; for Duration of action / Efficacy in reversing NP in vivo (of full reversal at peak effect): CCI model
human DAT = human DAT (Homo sapiens (Human), UniProt Q01959); assay: Radioligand ([3H]WIN35428) binding at the dopamine transporter; conditions: off-target binding
r Sigma 1 = r Sigma 1 (Rattus norvegicus (Rat), UniProt Q9R0C9); assay: Off-target binding, Sigma-1; conditions: 10 μM
Source text: as §1

[6] = Stability in simulated fluids (gastric, intestinal); assay type: in vitro ADME
Source text: In vitro stability parameters for selected compounds are set forth in Table 6, in accordance with an embodiment of the invention.

Chain of hA1AR (P30542 whole entry): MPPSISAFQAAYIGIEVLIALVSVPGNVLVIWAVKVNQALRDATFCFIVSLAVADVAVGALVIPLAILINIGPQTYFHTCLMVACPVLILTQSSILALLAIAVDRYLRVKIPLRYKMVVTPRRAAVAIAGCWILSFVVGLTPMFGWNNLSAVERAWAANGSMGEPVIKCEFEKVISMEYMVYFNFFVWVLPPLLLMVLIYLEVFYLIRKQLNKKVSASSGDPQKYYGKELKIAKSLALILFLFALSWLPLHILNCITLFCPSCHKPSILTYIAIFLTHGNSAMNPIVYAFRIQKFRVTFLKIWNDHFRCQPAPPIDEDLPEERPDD
Chain of hA2AAR (P29274 whole entry): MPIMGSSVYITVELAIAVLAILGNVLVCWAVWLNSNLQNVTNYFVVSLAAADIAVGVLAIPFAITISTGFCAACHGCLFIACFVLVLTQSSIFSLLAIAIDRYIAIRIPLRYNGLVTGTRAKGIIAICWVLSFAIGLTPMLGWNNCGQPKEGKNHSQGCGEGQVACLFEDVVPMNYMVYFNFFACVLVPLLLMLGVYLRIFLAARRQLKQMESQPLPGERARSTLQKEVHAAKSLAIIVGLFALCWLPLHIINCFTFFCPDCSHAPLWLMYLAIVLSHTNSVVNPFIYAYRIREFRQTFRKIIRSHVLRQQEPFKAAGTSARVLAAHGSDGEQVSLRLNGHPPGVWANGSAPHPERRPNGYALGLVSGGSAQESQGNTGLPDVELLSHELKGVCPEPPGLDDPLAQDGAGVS
Chain of PBR (P30536 whole entry, species assumed): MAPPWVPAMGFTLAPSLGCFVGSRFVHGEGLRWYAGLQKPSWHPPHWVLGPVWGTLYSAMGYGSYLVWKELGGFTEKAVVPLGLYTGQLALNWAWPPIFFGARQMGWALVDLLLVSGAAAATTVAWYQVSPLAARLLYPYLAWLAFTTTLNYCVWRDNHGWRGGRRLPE
Chain of r Sigma 2 (Q5U3Y7 whole entry): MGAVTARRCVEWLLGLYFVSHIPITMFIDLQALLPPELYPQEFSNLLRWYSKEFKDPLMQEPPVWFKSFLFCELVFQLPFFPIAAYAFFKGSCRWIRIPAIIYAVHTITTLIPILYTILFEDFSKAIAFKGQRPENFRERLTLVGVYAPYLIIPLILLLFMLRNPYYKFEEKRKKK
Chain of Alpha 2B adrenergic receptor (P18089 whole entry): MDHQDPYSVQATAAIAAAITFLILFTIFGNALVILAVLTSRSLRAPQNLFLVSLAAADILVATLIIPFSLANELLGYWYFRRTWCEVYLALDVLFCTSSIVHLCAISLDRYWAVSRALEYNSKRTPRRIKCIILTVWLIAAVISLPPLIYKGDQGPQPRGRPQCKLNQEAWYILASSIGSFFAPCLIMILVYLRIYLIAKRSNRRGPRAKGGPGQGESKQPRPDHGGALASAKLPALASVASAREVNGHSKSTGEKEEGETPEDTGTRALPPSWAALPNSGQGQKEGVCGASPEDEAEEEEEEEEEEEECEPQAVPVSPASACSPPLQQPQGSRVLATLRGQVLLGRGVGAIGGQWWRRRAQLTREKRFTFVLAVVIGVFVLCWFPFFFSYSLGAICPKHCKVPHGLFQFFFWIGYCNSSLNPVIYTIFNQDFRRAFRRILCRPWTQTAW
Chain of mA3AR (Q61618 whole entry): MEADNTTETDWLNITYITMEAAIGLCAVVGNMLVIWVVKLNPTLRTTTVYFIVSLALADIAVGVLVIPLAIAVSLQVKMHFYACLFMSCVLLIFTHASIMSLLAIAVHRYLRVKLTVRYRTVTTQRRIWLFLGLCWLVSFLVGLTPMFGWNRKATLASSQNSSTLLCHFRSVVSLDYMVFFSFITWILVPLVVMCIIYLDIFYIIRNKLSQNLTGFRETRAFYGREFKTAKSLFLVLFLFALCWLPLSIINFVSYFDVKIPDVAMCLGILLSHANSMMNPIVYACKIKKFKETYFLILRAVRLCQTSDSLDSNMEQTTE
Chain of human DAT (Q01959 whole entry): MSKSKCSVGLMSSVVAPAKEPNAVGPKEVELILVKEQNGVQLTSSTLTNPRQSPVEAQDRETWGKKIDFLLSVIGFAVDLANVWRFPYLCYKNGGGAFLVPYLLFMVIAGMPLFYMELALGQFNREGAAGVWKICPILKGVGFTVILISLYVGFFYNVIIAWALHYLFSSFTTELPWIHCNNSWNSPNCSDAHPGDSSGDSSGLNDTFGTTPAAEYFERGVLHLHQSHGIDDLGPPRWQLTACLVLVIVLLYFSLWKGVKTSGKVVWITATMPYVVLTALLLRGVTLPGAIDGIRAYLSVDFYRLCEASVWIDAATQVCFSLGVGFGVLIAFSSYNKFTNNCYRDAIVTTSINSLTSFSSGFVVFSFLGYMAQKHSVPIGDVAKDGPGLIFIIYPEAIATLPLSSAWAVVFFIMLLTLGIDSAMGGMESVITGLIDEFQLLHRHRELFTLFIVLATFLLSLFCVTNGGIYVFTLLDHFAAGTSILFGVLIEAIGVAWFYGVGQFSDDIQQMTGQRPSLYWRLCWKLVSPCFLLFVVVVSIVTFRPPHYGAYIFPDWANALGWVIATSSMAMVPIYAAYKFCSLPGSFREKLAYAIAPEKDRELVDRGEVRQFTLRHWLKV
Chain of h Beta 3 adrenergic receptor (P13945 whole entry): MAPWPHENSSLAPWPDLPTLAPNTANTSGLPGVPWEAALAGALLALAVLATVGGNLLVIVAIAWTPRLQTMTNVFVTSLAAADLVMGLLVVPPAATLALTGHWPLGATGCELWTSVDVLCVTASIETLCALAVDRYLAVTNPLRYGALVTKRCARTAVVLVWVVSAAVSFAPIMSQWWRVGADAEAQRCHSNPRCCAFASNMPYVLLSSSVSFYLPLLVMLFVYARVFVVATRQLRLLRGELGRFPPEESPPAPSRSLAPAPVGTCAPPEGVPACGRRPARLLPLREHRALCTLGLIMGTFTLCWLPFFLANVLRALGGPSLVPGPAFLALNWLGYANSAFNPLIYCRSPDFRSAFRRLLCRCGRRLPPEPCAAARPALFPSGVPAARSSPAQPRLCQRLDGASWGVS
Chain of hM2 muscarinic receptor (P08172 whole entry): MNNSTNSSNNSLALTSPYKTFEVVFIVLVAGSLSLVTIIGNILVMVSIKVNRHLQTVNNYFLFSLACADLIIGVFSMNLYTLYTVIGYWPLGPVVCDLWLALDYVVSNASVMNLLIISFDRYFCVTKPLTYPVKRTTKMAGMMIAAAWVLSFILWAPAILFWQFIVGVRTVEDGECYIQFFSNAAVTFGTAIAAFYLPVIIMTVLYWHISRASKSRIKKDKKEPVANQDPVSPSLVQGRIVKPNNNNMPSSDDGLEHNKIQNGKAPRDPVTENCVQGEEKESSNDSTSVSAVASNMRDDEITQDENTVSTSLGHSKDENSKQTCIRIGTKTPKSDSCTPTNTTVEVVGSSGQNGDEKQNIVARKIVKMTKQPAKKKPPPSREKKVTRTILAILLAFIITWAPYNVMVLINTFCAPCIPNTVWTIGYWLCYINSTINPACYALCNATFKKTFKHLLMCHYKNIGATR
Chain of mA1AR (Q60612 whole entry): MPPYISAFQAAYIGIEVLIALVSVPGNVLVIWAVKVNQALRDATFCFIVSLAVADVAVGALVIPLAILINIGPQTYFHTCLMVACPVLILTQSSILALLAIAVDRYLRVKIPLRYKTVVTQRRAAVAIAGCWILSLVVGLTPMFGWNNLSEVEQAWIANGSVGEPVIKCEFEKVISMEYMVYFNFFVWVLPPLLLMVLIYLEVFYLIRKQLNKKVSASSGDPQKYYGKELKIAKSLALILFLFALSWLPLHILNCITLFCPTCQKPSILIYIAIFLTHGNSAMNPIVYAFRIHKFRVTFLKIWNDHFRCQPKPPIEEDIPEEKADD
Chain of h5HT1A (P08908 whole entry): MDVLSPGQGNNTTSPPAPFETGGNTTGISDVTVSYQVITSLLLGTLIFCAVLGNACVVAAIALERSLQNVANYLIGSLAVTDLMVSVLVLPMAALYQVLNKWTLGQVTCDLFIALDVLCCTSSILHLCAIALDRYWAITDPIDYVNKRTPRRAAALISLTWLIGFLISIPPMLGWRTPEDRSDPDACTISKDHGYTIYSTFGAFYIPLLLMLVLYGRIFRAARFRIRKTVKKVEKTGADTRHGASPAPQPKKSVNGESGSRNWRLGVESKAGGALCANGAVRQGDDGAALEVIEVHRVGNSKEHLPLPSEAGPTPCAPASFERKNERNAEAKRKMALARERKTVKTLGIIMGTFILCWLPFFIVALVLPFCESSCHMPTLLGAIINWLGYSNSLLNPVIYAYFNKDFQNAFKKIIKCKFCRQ
Chain of hA3AR (P0DMS8 whole entry): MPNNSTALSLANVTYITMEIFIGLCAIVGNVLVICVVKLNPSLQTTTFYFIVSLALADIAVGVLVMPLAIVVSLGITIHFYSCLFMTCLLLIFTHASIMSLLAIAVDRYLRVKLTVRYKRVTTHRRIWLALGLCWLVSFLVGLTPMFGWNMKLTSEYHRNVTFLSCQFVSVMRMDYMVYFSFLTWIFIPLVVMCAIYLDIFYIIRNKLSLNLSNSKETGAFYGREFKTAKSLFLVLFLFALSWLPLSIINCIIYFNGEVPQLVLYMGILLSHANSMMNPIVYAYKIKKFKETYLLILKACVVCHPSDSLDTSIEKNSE
Chain of h5HT2B (P41595 whole entry): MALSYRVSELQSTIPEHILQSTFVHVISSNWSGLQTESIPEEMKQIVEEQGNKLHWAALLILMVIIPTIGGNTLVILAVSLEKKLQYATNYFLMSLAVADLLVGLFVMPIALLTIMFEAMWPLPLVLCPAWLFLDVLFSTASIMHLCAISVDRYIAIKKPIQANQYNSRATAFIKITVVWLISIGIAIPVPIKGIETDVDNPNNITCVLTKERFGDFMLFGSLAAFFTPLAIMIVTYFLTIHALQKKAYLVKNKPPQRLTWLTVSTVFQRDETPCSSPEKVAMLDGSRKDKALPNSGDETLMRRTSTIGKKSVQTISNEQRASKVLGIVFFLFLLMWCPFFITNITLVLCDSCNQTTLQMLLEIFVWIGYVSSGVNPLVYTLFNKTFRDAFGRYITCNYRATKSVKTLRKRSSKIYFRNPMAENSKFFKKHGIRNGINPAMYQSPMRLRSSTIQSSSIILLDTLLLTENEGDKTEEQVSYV

SMILES: CNC(=O)C12CC1C(n1cnc3c(NCc4cccc(Cl)c4)nc(C#Cc4ccc(F)c(F)c4)nc31)C(O)C2O (single isomer, unassigned) [MRS5698]
Ki (h5HT2B; read-out: Ki at 5HT2B): 2600 nM
Ki (h5HT2B; read-out: Ki class at 5HT2B): 1000 to 10000 nM
Ki (DOR opiate receptor; read-out: Ki at DOR): 2500 nM
Ki (DOR opiate receptor; read-out: Ki class at DOR): 1000 to 10000 nM
Ki (h5HT1A; read-out: Ki at 5HT1A): 7600 nM
Ki (h5HT1A; read-out: Ki class at 5HT1A): 1000 to 10000 nM
Ki ([1]; read-out: Ki at α2C): 2000 nM
Ki ([1]; read-out: Ki class at α2C): 1000 to 10000 nM
Ki (r Sigma 2; read-out: Ki at Sigma-2 (σ2)): 910 nM
Ki (r Sigma 2; read-out: Ki class at σ2): < 1000 nM
Ki ([2]; read-out: Ki at β3): 5800 nM
Ki ([2]; read-out: Ki class at β3): 1000 to 10000 nM
Ki (PBR; read-out: Ki at PBR): 340 nM
Ki (PBR; read-out: Ki class at PBR): < 1000 nM
Ki ([3]; read-out: Ki at α2B): 2900 nM and 4800 nM
Ki ([3]; read-out: Ki class at α2B): 1000 to 10000 nM
Ki (h5HT2C; Ki at 5HT2C): 5800 nM
Ki (h5HT2C; Ki class at 5HT2C): 1000 to 10000 nM
Ki (hM2 muscarinic receptor; read-out: Ki at M2): 5400 nM
Ki (hM2 muscarinic receptor; read-out: Ki class at M2): 1000 to 10000 nM
Ki (hH4 histamine receptor; read-out: Ki at H4): 9400 nM
Ki (hH4 histamine receptor; read-out: Ki class at H4): 1000 to 10000 nM

Ki (hA3AR): 78.5 ± 19.8 nM
inhibition at 10 µM (hA1AR): 16 ± 5%
inhibition at 10 µM (hA2AAR): 16 ± 7%
Ki (mA3AR): 136 ± 9 nM
SMILES: CNC(=O)[C@@]12C[C@@H]1[C@@H](n1cnc3c(/C=C(\O)c4ccc(C(C)(C)C)cc4)nc(C#Cc4ccc(C(C)(C)C)cc4)nc31)C(O)C2O (stereo in doubt) [Compound 40, (1S,2S,3R,4R,5S)-4-(6-((Z)-2-(4-(tert-Butyl)phenyl)-2-hydroxyvinyl)-2-((4-(tert-butyl)phenyl)ethynyl)-9H-purin-9-yl)-2,3-dihydroxy-N-methylbicyclo[3.1.0]hexane-1-carboxamide]

SMILES: CNC(=O)[C@@]12C[C@@H]1[C@@H](n1cnc3c(NC)nc(C#Cc4cccs4)nc31)[C@H](O)[C@@H]2O [Compound 8, (1S,2R,3S,4R,5S)-2,3-Dihydroxy-N-methyl-4-(6-(methylamino)-2-(thiophen-2-ylethynyl)-9H-purin-9-yl)bicyclo[3.1.0]hexane-1-carboxamide]
inhibition at 10 µM (mA1AR): 47%
Off-target effects compared with MRS5698 and MRS5676 [4]: significantly fewer off-target effects
Interactions at other receptors of the off-target panel [4]: No interactions at other receptors
inhibition at 10 µM (mA2AAR): 3%
inhibition at 10 µM (hA1AR): 25%
inhibition at 10 µM (hA2AAR): 20 ± 6%
Ki ([3]; read-out: Ki at α2B): 5500 nM
Max. effect Emax (% ± SEM) ([5]; 3 μmol/kg p.o., mice): 100 ± 0.0%
Time of peak protection ([5]; 3 μmol/kg p.o., mice): 1 h
Duration of action [5]: ~3 h
Efficacy in reversing NP in vivo (of full reversal at peak effect) [5]: ~100%
Ki (human DAT; read-out: Ki at DAT): 760 nM
Ki (human DAT; read-out: Ki class at DAT): < 1000 nM
Ki (mA3AR): 43 ± 2 nM

SMILES: CNC(=O)[C@@]12C[C@@H]1[C@@H](n1cnc3c(NC)nc(C#Cc4ccco4)nc31)[C@H](O)[C@@H]2O [Compound 17, (1S,2R,3S,4R,5S)-4-(2-(Furan-2-ylethynyl)-6-(methylamino)-9H-purin-9-yl)-2,3-dihydroxy-N-methylbicyclo[3.1.0]hexane-1-carboxamide]
Interaction at Sigma-1 (r Sigma 1): weak interactions
Ki (hA3AR): 0.62 ± 0.06 nM
Interaction at Sigma-2 (r Sigma 2; 10 μM): weak interactions
inhibition at 10 µM (mA1AR): 59%
Off-target effects compared with MRS5698 and MRS5676 [4]: significantly fewer off-target effects
Interactions at other receptors of the off-target panel [4]: No interactions
inhibition at 10 µM (mA2AAR): 17%
half-life ([6]; simulated gastric fluid, read-out: Stability in simulated fluids (t1/2, min): Gastric): > 480 min
half-life ([6]; simulated intestinal fluid, read-out: Stability in simulated fluids (t1/2, min): Intestinal): > 480 min
inhibition at 10 µM (hA1AR): 30%
Interaction at PBR (PBR; 10 μM): weak interactions
inhibition at 10 µM (hA2AAR): 18 ± 9%
Effect at 3 h (% ± SEM) ([5]; 3 μmol/kg p.o., mice, 3 h): 27.6 ± 1.3%
Max. effect Emax (% ± SEM) ([5]; 3 μmol/kg p.o., mice): 100 ± 0.0%
Time of peak protection ([5]; 3 μmol/kg p.o., mice): 1 h
Duration of action [5]: ~3 h
Efficacy in reversing NP in vivo (of full reversal at peak effect) [5]: ~100%
Ki (mA3AR): 54 ± 11 nM
